Assay results reported in PubChem BioAssay AID1919002 (Molecular Pharmacology Branch, DTP, NCI, 2023).
Several values for one entry are separate records, joined by “and”; a condition that tells them apart may be missing. Equal values may be shown once.

Tested on: 743489-274-T-PDC complex spheroid growth
Test: Anticancer human tumor 743489-274-T-PDC patient-derived renal cell carcinoma cell line growth inhibition [AhR]
Details: for viability, T/C: stronger effect = lower value; active = viability on the fitted dose curve at most 10% of control; inactive = the rest
Method in brief: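 Spheroids combined tumor cells with HUVEC endothelial cells and human MSCs as stroma. AhR antagonists were paired with standard or investigational drugs, each dosed in half-log steps down from near clinical Cmax, or from 10 microM where Cmax was unknown.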

[1] = curve of first compound, second compound 0.1 µM
[2] = curve of first compound, second compound 0.316 µM
[3] = curve of first compound, second compound 1 µM
[4] = curve of first compound, second compound 3.16 µM
[5] = curve of first compound, second compound 10 µM
[6] = second compound 0.1 µM, first compound 0.00316 µM
[7] = second compound 0.1 µM, first compound 0.01 µM
[8] = second compound 0.1 µM, first compound 0.0316 µM
[9] = second compound 0.1 µM, first compound 0.1 µM
[10] = second compound 0.1 µM, first compound 0.316 µM
[11] = second compound 0.1 µM, first compound 1 µM
[12] = second compound 0.316 µM, first compound 0.00316 µM
[13] = second compound 0.316 µM, first compound 0.01 µM
[14] = second compound 0.316 µM, first compound 0.0316 µM
[15] = second compound 0.316 µM, first compound 0.1 µM
[16] = second compound 0.316 µM, first compound 0.316 µM
[17] = second compound 0.316 µM, first compound 1 µM
[18] = second compound 1 µM, first compound 0.00316 µM
[19] = second compound 1 µM, first compound 0.01 µM
[20] = second compound 1 µM, first compound 0.0316 µM
[21] = second compound 1 µM, first compound 0.1 µM
[22] = second compound 1 µM, first compound 0.316 µM
[23] = second compound 1 µM, first compound 1 µM
[24] = second compound 3.16 µM, first compound 0.00316 µM
[25] = second compound 3.16 µM, first compound 0.01 µM
[26] = second compound 3.16 µM, first compound 0.0316 µM
[27] = second compound 3.16 µM, first compound 0.1 µM
[28] = second compound 3.16 µM, first compound 0.316 µM
[29] = second compound 3.16 µM, first compound 1 µM
[30] = second compound 10 µM, first compound 0.00316 µM
[31] = second compound 10 µM, first compound 0.01 µM
[32] = second compound 10 µM, first compound 0.0316 µM
[33] = second compound 10 µM, first compound 0.1 µM
[34] = second compound 10 µM, first compound 0.316 µM
[35] = second compound 10 µM, first compound 1 µM
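Note: spheroids exposed to agents for 7 days before readout.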
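Throughout, for viability, T/C: 100% = DMSO vehicle control wells.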

Nc1ncn(C2CC(O)C(CO)S2)c(=O)n1 (configuration not stated) + Cc1cncc(-c2nc(NCCc3c[nH]c4ccccc34)c3ncn(C(C)C)c3n2)c1
inactive: viability, T/C (second compound 0.1 µM, first compound 0.000949 µM) 107% | viability, T/C (second compound 0.1 µM, first compound 0.003 µM) 105% | viability, T/C (second compound 0.1 µM, first compound 0.00949 µM) 104% | viability, T/C (second compound 0.1 µM, first compound 0.03 µM) 95.8% | viability, T/C (second compound 0.1 µM, first compound 0.0949 µM) 96.5% | viability, T/C (second compound 0.1 µM, first compound 0.3 µM) 93.1% | viability, T/C (second compound 0.316 µM, first compound 0.000949 µM) 96.6% | viability, T/C (second compound 0.316 µM, first compound 0.003 µM) 99.8% | viability, T/C (second compound 0.316 µM, first compound 0.00949 µM) 104% | viability, T/C (second compound 0.316 µM, first compound 0.03 µM) 98.3% | viability, T/C (second compound 0.316 µM, first compound 0.0949 µM) 84.7% | viability, T/C (second compound 0.316 µM, first compound 0.3 µM) 101% | viability, T/C (second compound 1 µM, first compound 0.000949 µM) 108% | viability, T/C (second compound 1 µM, first compound 0.003 µM) 100% | viability, T/C (second compound 1 µM, first compound 0.00949 µM) 106% | viability, T/C (second compound 1 µM, first compound 0.03 µM) 106% | viability, T/C (second compound 1 µM, first compound 0.0949 µM) 98.8% | viability, T/C (second compound 1 µM, first compound 0.3 µM) 103% | viability, T/C (second compound 3.16 µM, first compound 0.000949 µM) 114% | viability, T/C (second compound 3.16 µM, first compound 0.003 µM) 106% | viability, T/C (second compound 3.16 µM, first compound 0.00949 µM) 119% | viability, T/C (second compound 3.16 µM, first compound 0.03 µM) 118% | viability, T/C (second compound 3.16 µM, first compound 0.0949 µM) 109% | viability, T/C (second compound 3.16 µM, first compound 0.3 µM) 96.2% | viability, T/C (second compound 10 µM, first compound 0.000949 µM) 138% | viability, T/C (second compound 10 µM, first compound 0.003 µM) 115% | viability, T/C (second compound 10 µM, first compound 0.00949 µM) 117% | viability, T/C (second compound 10 µM, first compound 0.03 µM) 124% | viability, T/C (second compound 10 µM, first compound 0.0949 µM) 112% | viability, T/C (second compound 10 µM, first compound 0.3 µM) 125%
> 300 nM: IC50 [1] | IC50 [2] | IC50 [3] | IC50 [4] | IC50 [5]

CC1COCCN1c1cc(-c2ccnn2C)c2ccnc(-c3ccn[nH]3)c2n1 (configuration not stated) + CC(CO)NC(=O)c1cc(-c2ccc(Cl)cc2)nn(-c2cnn(C)c2)c1=O
> 1000 nM: IC50 [1] | IC50 [2] | IC50 [3] | IC50 [4] | IC50 [5]
inactive: viability, T/C [6] 105% | viability, T/C [7] 97.6% | viability, T/C [8] 99.9% | viability, T/C [9] 91.4% | viability, T/C [10] 99.2% | viability, T/C [11] 88.8% | viability, T/C [12] 92% | viability, T/C [13] 97.7% | viability, T/C [14] 93.9% | viability, T/C [15] 97.2% | viability, T/C [16] 93.4% | viability, T/C [17] 71.5% | viability, T/C [18] 87.6% | viability, T/C [19] 90% | viability, T/C [20] 93.4% | viability, T/C [21] 96.2% | viability, T/C [22] 88.9% | viability, T/C [23] 81.8% | viability, T/C [24] 112% | viability, T/C [25] 91.7% | viability, T/C [26] 105% | viability, T/C [27] 92.2% | viability, T/C [28] 88.5% | viability, T/C [29] 65.6% | viability, T/C [30] 112% | viability, T/C [31] 91.8% | viability, T/C [32] 92.1% | viability, T/C [33] 93.2% | viability, T/C [34] 95.9% | viability, T/C [35] 76.8%

CC(C)CC(NC(=O)C(Cc1ccccc1)NC(=O)c1cnccn1)B(O)O (configuration not stated)
inactive: viability, T/C (compound 0.000949 µM) 99.1% and 101% and 98% | viability, T/C (compound 0.003 µM) 95.6% and 109% and 101% | viability, T/C (compound 0.00949 µM) 106% and 110% and 101% | viability, T/C (compound 0.03 µM) 82.7% and 39.1% and 17.3%
51.3 nM and 24.9 nM and 19 nM: IC50 (curve of compound)
11.7% and 8.88% and 4.65%: viability, T/C (compound 0.3 µM)
12.9% and 18.7% and 11.8%: viability, T/C (compound 0.0949 µM)

Nc1ncn(C2CC(O)C(CO)O2)c(=O)n1 (configuration not stated) + Cc1cncc(-c2nc(NCCc3c[nH]c4ccccc34)c3ncn(C(C)C)c3n2)c1
> 1000 nM: IC50 [1] | IC50 [2] | IC50 [3] | IC50 [4] | IC50 [5]
inactive: viability, T/C [6] 105% | viability, T/C [7] 98.7% | viability, T/C [8] 104% | viability, T/C [9] 95.1% | viability, T/C [10] 92% | viability, T/C [11] 96% | viability, T/C [12] 99.4% | viability, T/C [13] 99.8% | viability, T/C [14] 93.5% | viability, T/C [15] 96.3% | viability, T/C [16] 94.8% | viability, T/C [17] 94.4% | viability, T/C [18] 109% | viability, T/C [19] 107% | viability, T/C [20] 98.5% | viability, T/C [21] 93% | viability, T/C [22] 106% | viability, T/C [23] 93.7% | viability, T/C [24] 104% | viability, T/C [25] 108% | viability, T/C [26] 104% | viability, T/C [27] 100% | viability, T/C [28] 103% | viability, T/C [29] 98.4% | viability, T/C [30] 113% | viability, T/C [31] 114% | viability, T/C [32] 131% | viability, T/C [33] 109% | viability, T/C [34] 107% | viability, T/C [35] 120%
